Columns and labels:
[1] = test system: ancef sensitive organisms; test: Minimum bactericidal concentration (MBC) of ancef; format: cell-based
Experimental: In an operating room setting, the vancomycin is reconstituted at room temperature (˜25° C.). […] To insure the Minimal Inhibitory Concentration (MIC) for vancomycin is exceeded, the total amount of vancomycin added to the mixture ranges from 1 mg to 5000 mg with the preferred amount being 500 mg for a 10 ml syringe, 750 mg for a 15 ml syringe, and 1000 for a 20 ml syringe. People having skill in the art will recognize that the concentrations of vancomycin can be adjusted for different sized syringes. The reconstituted vancomycin is added to the thrombin-flowable agent mixture to form a wound healing compound (“compound”). The compound is applied directly to the target wound. The Minimum Inhibitory Concentration (MIC) is defined as the lowest concentration of antimicrobial that will inhibit the visible growth of a microorganism after an overnight incubation. Related to this is the minimum bactericidal concentration (MBC), which is the lowest concentration of antimicrobial agent that will prevent the growth of an organism after subculture on to antibiotic free media.
Depending on the infection agent, other antibiotics may be added to the mixture to form the wound healing compound. In the lab, ancef sensitive organisms are inhibited at an MIC ranging from 1-4 mcg/ml. However, ancef is bactericidal a four times the MIC. […]

[2] = test system: ancef sensitive organisms; details: in the lab; cited from earlier work
[3] = test system: all ranges of bacterial infection; details: in water or saline; cited from earlier work

Row | Compound | preferred concentration (the MBC), bactericidal at four times the MIC [1] | MIC [2] | concentration at which most effective if all ranges of bacterial infection are to be inhibited [3]
1 | Cc1nnc(SCC2=C(C(=O)O)N3C(=O)[C@@H](NC(=O)Cn4cnnn4)[C@H]3SC2)s1 [ancef] | at least 16 mcg/ml | 1 to 4 µg/mL | –
2 | CN[C@H](CC(C)C)C(=O)N[C@H]1C(=O)N[C@@H](CC(N)=O)C(=O)N[C@H]2C(=O)N[C@H]3C(=O)N[C@H](C(=O)N[C@H](C(=O)O)c4cc(O)cc(O)c4-c4cc3ccc4O)[C@H](O)c3ccc(c(Cl)c3)Oc3cc2cc(c3O[C@@H]2O[C@H](CO)[C@@H](O)[C@H](O)[C@H]2O[C@H]2C[C@](C)(N)[C@H](O)[C@H](C)O2)Oc2ccc(cc2Cl)[C@H]1O [Vancomycin, vancomycin] | – | – | ≥ 16 µg/mL

Source: patent US20170354721A1, “WOUND HEALING COMPOUND” (priority 2016, published 2017)
